Data published in article PMC9667543, “Discovery of Nanomolar-Affinity Pharmacological Chaperones Stabilizing the Oncogenic p53 Mutant Y220C” (ACS Pharmacology & Translational Science, 2022).
Where two headings read alike, the source gives them in different places.

How the values were obtained:
[1] = test system: p53-Y220C cancer cell lines HUH-7, BXPC-3, NUGC-3; conditions: cited from earlier work
p53-Y220C [2] = biological target: T1, p53-Y220C (Homo sapiens, UniProt P04637, M133L/N239Y/N268D/V203A/Y220C); conditions: cited from earlier work; for stabilization of p53-Y220C (DSF): in vitro
T1 construct: Stabilized p53-Y220C DBD (residues 94−312) was expressed and purified as previously described; 6xHis (N, cleaved yes); lipoyl domain (N, cleaved yes); TEV protease cleavage site (N, cleaved yes); made in house; host or cells: E. coli Rosetta2 plac I

p53 = test system: p53; design: method as in PMID 31633398; conditions: in vitro; cited from earlier work
p53-Y220C [3] = biological target: T1, p53-Y220C; conditions: cited from earlier work
p53-Y220C [4] = biological target: T1, p53-Y220C; experiment: Binding affinity by isothermal titration calorimetry (ITC); conditions: Table 2; ITC reverse titrations, 4–15 μM ligand, 100–147 μM protein
p53-Y220C [5] = biological target: T1, p53-Y220C; experiment: Thermal stabilization (ΔTm) by differential scanning fluorimetry (DSF); format: binding; conditions: 10× SYPRO Orange; for ΔTm at 200 µM: 8 μM protein; for ΔTm (°C) [L] = 200 μM: Table 1, 8 μM protein
Method: Differential Scanning Fluorimetry (DSF)
Protein thermal stabilization was determined using SYPRO orange (Life Technologies) as a dye that increases in fluorescence quantitatively upon binding to hydrophobic protein surfaces exposed upon thermal denaturation. Real-time melt analysis was recorded on a Bio-rad CFX Connect Real-time qPCR system. DSF measurements were performed using 8 μM protein and 10x SYPRO orange in assay buffer (25 mM KPi, 150 mM NaCl, 1 mM TCEP, pH 7.2) at a final DMSO concentration of 5% (v/v). ΔT m values were calculated as ΔT m = T m (protein + compound) − T m (protein). ΔT m values are reported as an average of three independent measurements. […]

p53-Y220C [6] = biological target: T1, p53-Y220C; experiment: Binding affinity by isothermal titration calorimetry (ITC); conditions: for LE (kcal/mol/NHA): ligand efficiency; for fold reduction in binding affinity compared with 4: versus unsubstituted pyrrole reference 4
Method: Isothermal Titration Calorimetry (ITC)
ITC experiments were conducted using a MicroCal iTC200 calorimeter. For forward titrations, the cell unit contained 25-50 μM protein in freshly dialyzed assay buffer (25 mM KPi, 150 mM NaCl, 1 mM TCEP, pH 7.2) with a final DMSO content of 5% (v/v), and the syringe contained 0.5-5 mM compound […]
the same buffer. Injection steps used were 2 µL (initial injection: 0.5 µL) at a rate of 2 µL/s with 120 s or 240 s spacing, and all experiments were performed at 25-30 °C. Data were analyzed using MicroCal PEAQ-ITC analysis software. […]

[7] = test system: p53 target genes PUMA, 9p21, BTG2, FAS, TNF, and TNFRSF10B; design: method as in PMID 29702446; conditions: qPCR; cited from earlier work
NUGC-3 (p53-Y220C) = test system: NUGC-3 (p53-Y220C); design: method as in PMID 29702446; conditions: at 10 μM; cited from earlier work

Row | SMILES | ΔTm at 200 µM (p53-Y220C [5]; Table 1, [L] = 200 μM) [°C] | Kd (p53-Y220C [6]; Table 1, ITC, [prot] = 50 μM) [µM] | LE (kcal/mol/NHA) (p53-Y220C [6]; Table 1) | melting point | other results
1 | CCn1c2ccc(CNC)cc2c2ccc(-c3cc(C)cs3)cc21 [compound 1] | – | – | – | – | selective cell viability reduction ([1]; HUH-7 and NUGC-3 (p53-Y220C) versus HUH7-F1 (p53-Y220C KO) and NUGC-4 (p53-WT), narrow concentration range): induces selective cell viability reduction; thermal shift (ΔTm) to the protein melting temperature (p53-Y220C [2]; 250 μM [ligand]): over 3 °C; p53 aggregation (p53): reduces p53 aggregation in vitro; Kd (p53-Y220C [3]; binding to the Y220C pocket): 2 µM
2 | CCN(CC)c1nc2c(C(=O)O)c(O)c(I)c(-n3cccc3)c2s1 [compound 2, reference compound] | – | – | – | – | Kd (p53-Y220C [4]): 1.2 µM; stabilization of p53-Y220C (DSF) (p53-Y220C [2]): stabilize p53-Y220C in vitro in a concentration-dependent manner; ΔTm at 200 µM (p53-Y220C [5]; Table 2, [L] = 200 μM): 2.3 °C; LE (kcal/mol/NHA) (p53-Y220C [6]; Table 2): 0.34 kcal/mol/NHA
3 | CCNC(=O)c1c(O)c(I)c(-n2cccc2)c2sc(N(CC)CC)nc12 [compound 3] | – | – | – | – | selective cell viability reduction ([1]; HUH-7, BXPC-3, NUGC-3 versus NUGC-4, SW1088, WI38, HUH-7 p53-Y220C KO): induces selective cell viability reduction; stabilization of p53-Y220C (DSF) (p53-Y220C [2]): stabilize p53-Y220C in vitro in a concentration-dependent manner; transcription of p53 target genes [7]: enhanced and selective transcription of p53 target genes; NUGC-3 viability (NUGC-3 (p53-Y220C)): < 10%; Kd (p53-Y220C [3]; literature value, ITC): 4 µM
4 | O=C(O)c1cc(I)c(-n2cccc2)c(I)c1O [compound 4] | 1.8 | 22 | 0.37 | 199 to 200 °C (dec.) | –
5 | CN(C)Cc1ccc2c(c1)c1ccccc1n2CC(F)(F)F [compound 6] | – | – | – | – | Kd (p53-Y220C [3]; supplementary CSV, previously reported compounds, no reference printed in the file): 37 µM
6 | O=C(O)c1cc(I)c(-n2cccn2)c(I)c1O [compound 17] | 0.7 | – | – | 241 °C (dec.) | –
7 | O=C(O)c1cc(I)c(-n2ccnc2)c(I)c1O [compound 18] | 1 | – | – | 238 °C (dec.) | –
8 | O=C(O)c1cc(I)c(-n2ccc3ccccc32)c(I)c1O [compound 19] | -0.3 | – | – | 183 to 184 °C (dec.) | ΔTm (°C) [L] = 200 μM (p53-Y220C [5]): induced virtually no stabilization
9 | O=C(O)c1cc(I)c(-n2ccc(Cl)c2)c(I)c1O [compound 20] | 1.5 | 38 | 0.33 | – | –
10 | O=C(O)c1cc(I)c(-n2ccc(F)c2)c(I)c1O [compound 21] | 1.9 | 15 | 0.37 | 270 to 271 °C (dec.) | –
11 | O=C(O)c1cc(I)c(-n2cc(F)c(F)c2)c(I)c1O [compound 22] | 1.9 | 25 | 0.33 | 217 to 218 °C (dec.) | –
12 | O=C(O)c1cc(I)c(-n2ccc(C(F)(F)F)c2)c(I)c1O [compound 23] | 0.5 | 100 | 0.26 | – | fold reduction in binding affinity compared with 4 (p53-Y220C [6]): approximately 5 fold
13 | O=C(O)c1cc(I)c(OCC(F)(F)F)c(I)c1O [compound 24] | 0.3 | – | – | – | –
14 | Cc1cccn1-c1c(I)cc(C(=O)O)c(O)c1I [compound 43] | 1.5 | 200 | 0.28 | – | –
15 | Cc1ccn(-c2c(I)cc(C(=O)O)c(O)c2I)c1 [compound 44] | 1.5 | 160 | 0.29 | – | –
16 | Cc1ccc(C)n1-c1c(I)cc(C(=O)O)c(O)c1I [compound 45] | 1.1 | 77 | 0.30 | 215 °C (dec.) | fold reduction in binding affinity compared with 4 (p53-Y220C [6]): 3 fold
17 | CC(=O)c1ccn(-c2c(I)cc(C(=O)O)c(O)c2I)c1 [compound 46] | – | – | – | 235 to 236 °C (dec.) | –
18 | CCc1ccn(-c2c(I)cc(C(=O)O)c(O)c2I)c1 [compound 47] | 0.5 | – | – | – | ΔTm (°C) [L] = 200 μM (p53-Y220C [5]): induced virtually no stabilization
19 | COc1c(I)cc(C(=O)O)c(O)c1I [compound 62] | 1.5 | 120 | 0.38 | 197 to 198 °C (dec.) | –
20 | CCOc1c(I)cc(C(=O)O)c(O)c1I [compound 63] | 1.5 | 86 | 0.37 | 194 to 195 °C (dec.) | –
21 | CCCOc1c(I)cc(C(=O)O)c(O)c1I [compound 64] | 1.1 | 100 | 0.34 | – | –
22 | O=C(O)c1cc(I)c(OCCC(F)(F)F)c(I)c1O [compound 65] | 0.5 | – | – | 182 to 183 °C (dec.) | –
23 | CCNc1ccc(C(=O)O)c(O)c1I [compound 67] | 1.5 | – | – | 147 °C (dec.) | –
24 | O=C(O)c1cc(I)c(N2CCCC2)c(I)c1O [compound 70] | 0.3 | – | – | 146 °C (dec.) | ΔTm (°C) [L] = 200 μM (p53-Y220C [5]): did not exhibit measurable binding nor thermal stabilization; Kd (μM) (p53-Y220C [6]; Table 1, ITC, [prot] = 50 μM): did not exhibit measurable binding nor thermal stabilization
25 | Cc1c(I)cc(C(=O)O)c(O)c1I [compound 74] | 0.3 | – | – | – | –
26 | CCc1c(I)cc(C(=O)O)c(O)c1I [compound 75] | 1.5 | 26 | 0.45 | 188 to 189 °C (dec.) | –
27 | CCCc1c(I)cc(C(=O)O)c(O)c1I [compound 76] | 0.9 | 40 | 0.40 | – | –
28 | CCN(CC)c1nc2c(C(=O)O)c(O)c(I)c(-n3ccc(F)c3)c2s1 [compound 87] | – | – | – | – | Kd (p53-Y220C [4]): 0.32 µM; ΔTm at 200 µM (p53-Y220C [5]; Table 2, [L] = 200 μM): 2.7 °C; LE (kcal/mol/NHA) (p53-Y220C [6]; Table 2): 0.35 kcal/mol/NHA; fold improvement in affinity compared with parent 2 (p53-Y220C [6]; versus parent MB710 (2)): approximately 4 fold
29 | CCN(CC)c1nc2c(C(=O)O)c(O)c(I)c(-n3cc(F)c(F)c3)c2s1 [compound 88] | – | – | – | 216 to 217 °C | Kd (p53-Y220C [4]): 0.39 µM; ΔTm at 200 µM (p53-Y220C [5]; Table 2, [L] = 200 μM): 1.8 °C; LE (kcal/mol/NHA) (p53-Y220C [6]; Table 2): 0.34 kcal/mol/NHA
30 | CCN(CC)c1nc2c(C(=O)O)c(O)c(I)c(-n3ccc(Cl)c3)c2s1 [compound 89] | – | – | – | – | Kd (p53-Y220C [4]): 1.9 µM; ΔTm at 200 µM (p53-Y220C [5]; Table 2, [L] = 200 μM): 2 °C; LE (kcal/mol/NHA) (p53-Y220C [6]; Table 2): 0.31 kcal/mol/NHA; fold weaker binding affinity compared with MB710 (2) (p53-Y220C [6]; versus parent 2): ca. 2 fold
